Reference: patent US8609650B2, “Bridged bicyclic aryl and bridged bicyclic heteroaryl substituted triazoles useful as Axl inhibitors” (Rigel Pharmaceuticals, Inc., priority 2006, dated 2013)
pIC50: −log10 of the molar value.

Biological target: T1, Axl (Homo sapiens, UniProt P30530)
T1 construct: endogenous in cells; host or cells: HeLa cells
T1 sequence (P30530 26-894): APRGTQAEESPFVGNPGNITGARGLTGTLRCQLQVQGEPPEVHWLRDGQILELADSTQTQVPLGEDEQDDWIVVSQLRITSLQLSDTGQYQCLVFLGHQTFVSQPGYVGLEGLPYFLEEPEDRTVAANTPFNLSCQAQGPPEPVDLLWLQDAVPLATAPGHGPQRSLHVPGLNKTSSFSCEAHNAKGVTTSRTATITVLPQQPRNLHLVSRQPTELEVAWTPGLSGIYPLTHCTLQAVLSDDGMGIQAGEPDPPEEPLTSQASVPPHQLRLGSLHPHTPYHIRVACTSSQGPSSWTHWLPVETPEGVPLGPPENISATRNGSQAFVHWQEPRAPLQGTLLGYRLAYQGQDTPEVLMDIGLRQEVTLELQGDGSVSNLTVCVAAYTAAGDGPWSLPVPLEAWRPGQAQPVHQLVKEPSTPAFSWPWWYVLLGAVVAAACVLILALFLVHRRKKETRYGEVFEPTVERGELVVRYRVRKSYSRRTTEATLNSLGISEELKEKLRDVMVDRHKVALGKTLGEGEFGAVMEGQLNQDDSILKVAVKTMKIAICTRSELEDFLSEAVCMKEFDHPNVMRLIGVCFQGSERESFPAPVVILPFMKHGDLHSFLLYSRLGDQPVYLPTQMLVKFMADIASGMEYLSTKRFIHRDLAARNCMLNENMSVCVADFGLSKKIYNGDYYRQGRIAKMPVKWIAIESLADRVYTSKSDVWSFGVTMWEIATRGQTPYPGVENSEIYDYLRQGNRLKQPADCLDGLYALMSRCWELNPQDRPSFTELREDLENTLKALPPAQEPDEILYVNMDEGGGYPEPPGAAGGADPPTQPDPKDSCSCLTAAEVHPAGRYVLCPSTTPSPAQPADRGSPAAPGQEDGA
Test: Phospho-Akt In-Cell Western Assay (ability to inhibit Axl activity)
Format: cell-based
Conditions: Hela cells, stimulated by Axl-antibody cross-linking, phospho-Akt chemiluminescence normalized to relative cell number
Procedure, shortened: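 HeLa cells starved 24 h in 0.5% FCS with Axl/Fc 500 ng/mL, pre-treated 1 h at 37° C with compound, then stimulated 5 min by anti-Axl antibody cross-linking. Fixed cells probed for phospho-Akt with HRP secondary; chemiluminescence read.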

| Structure (SMILES) | pIC50 |
| --- | --- |
| Nc1nc(Nc2ccc(N3CCN(CC4CC4)[C@H](C(=O)O)C3)c(F)c2)nn1-c1cc(-c2ccccc2)c2c(n1)C1CCN2CC1 [Compound 66, 1-(1,4-ethano-8-phenyl-1,2,3,4-tetrahydro-1,5-naphthyridin-6-yl)-N^3-(3-fluoro-4-((3S)-3-carboxy-4-cyclopropylmethylpiperazin-1-yl)phenyl)-1H-1,2,4-triazole-3,5-diamine] | > 6.00 |
| CN1CCC(c2ccc(Nc3nc(N)n(-c4cc(-c5ccccc5)c5c(n4)C4CCN5CC4)n3)cc2)CC1 [Compound 67, 1-(1,4-ethano-8-phenyl-1,2,3,4-tetrahydro-1,5-naphthyridin-6-yl)-N^3-(4-(1-methylpiperidin-4-yl)phenyl)-1H-1,2,4-triazole-3,5-diamine] | > 6.00 |
| Cc1cc(Nc2nc(N)n(-c3cc(-c4ccccc4)c4c(n3)C3CCN4CC3)n2)ccc1N1CCC(N2CCCC2)CC1 [Compound 68, 1-(1,4-ethano-8-phenyl-1,2,3,4-tetrahydro-1,5-naphthyridin-6-yl)-N^3-(3-methyl-4-(4-(pyrrolidin-1-yl)piperidin-1-yl)phenyl)-1H-1,2,4-triazole-3,5-diamine] | > 6.00 |
| Nc1nc(Nc2ccc3c(c2)CCC(=O)CC3)nn1-c1cc(-c2ccccc2)c2c(n1)C1CCN2CC1 [Compound 69, 1-(1,4-ethano-8-phenyl-1,2,3,4-tetrahydro-1,5-naphthyridin-6-yl)-N^3-(7-oxo-6,7,8,9-tetrahydro-5H-benzo[7]annulene-3-yl)-1H-1,2,4-triazole-3,5-diamine] | 5.00 to 6.00 |
| Nc1nc(Nc2ccc3c(c2)CCC(NC2CCCC2)CC3)nn1-c1cc(-c2ccccc2)c2c(n1)C1CCN2CC1 (stereo not drawn) [Compound 70, 1-(1,4-ethano-8-phenyl-1,2,3,4-tetrahydro-1,5-naphthyridin-6-yl)-N^3-(7-cyclopentylamino-6,7,8,9-tetrahydro-5H-benzo[7]annulene-3-yl)-1H-1,2,4-triazole-3,5-diamine] | > 6.00 |
| Nc1nc(Nc2ccc3c(c2)CCC(N2CCC(N4CCCC4)CC2)CC3)nn1-c1cc(-c2ccccc2)c2c(n1)C1CCN2CC1 (stereo not drawn) [Compound 71, 1-(1,4-ethano-8-phenyl-1,2,3,4-tetrahydro-1,5-naphthyridin-6-yl)-N^3-(7-(4-pyrrolidin-1-ylpiperidin-1-yl)-6,7,8,9-tetrahydro-5H-benzo[7]annulene-3-yl)-1H-1,2,4-triazole-3,5-diamine] | > 6.00 |
| Nc1nc(Nc2ccc3c(c2)CCC(N2CCCC2)CC3)nn1-c1cc(-c2ccccc2)c2c(n1)C1CCN2CC1 (stereo not drawn) [Compound 72, 1-(1,4-ethano-8-phenyl-1,2,3,4-tetrahydro-1,5-naphthyridin-6-yl)-N^3-(7-pyrrolidin-1-yl-6,7,8,9-tetrahydro-5H-benzo[7]annulene-3-yl)-1H-1,2,4-triazole-3,5-diamine] | > 6.00 |

Further lines, results first:

| pIC50 | Structure (SMILES) |
| --- | --- |
| > 6.00 | CCOC(=O)C1CCN(C2CCN(c3ccc(Nc4nc(N)n(-c5cc(-c6ccccc6)c6c(n5)C5CCN6CC5)n4)cc3F)CC2)CC1 [Compound 58, (1,4-ethano-8-phenyl-1,2,3,4-tetrahydro-1,5-naphthyridin-6-yl)-N^3-(3-fluoro-4-(4-(4-ethyloxycarbonylpiperidin-1-yl)piperidin-1-yl)phenyl)-1H-1,2,4-triazole-3,5-diamine] |
| > 6.00 | Nc1nc(Nc2ccc(N3CCC(N4CCC(C(=O)O)CC4)CC3)c(F)c2)nn1-c1cc(-c2ccccc2)c2c(n1)C1CCN2CC1 [Compound 59, 1-(1,4-ethano-8-phenyl-1,2,3,4-tetrahydro-1,5-naphthyridin-6-yl)-N^3-(3-fluoro-4-(4-(4-carboxypiperidin-1-yl)piperidin-1-yl)phenyl)-1H-1,2,4-triazole-3,5-diamine] |
| > 6.00 | COC(=O)[C@@H]1CCCN1C1CCN(c2ccc(Nc3nc(N)n(-c4cc(-c5ccccc5)c5c(n4)C4CCN5CC4)n3)cc2F)CC1 [Compound 60, 1-(1,4-ethano-8-phenyl-1,2,3,4-tetrahydro-1,5-naphthyridin-6-yl)-N^3-(3-fluoro-4-(4-((2S)-2-methyloxycarbonylpyrrolidin-1-yl)piperidin-1-yl)phenyl)-1H-1,2,4-triazole-3,5-diamine] |
| > 6.00 | Nc1nc(Nc2ccc(N3CCC(N4CCC[C@H]4C(=O)O)CC3)c(F)c2)nn1-c1cc(-c2ccccc2)c2c(n1)C1CCN2CC1 [Compound 61, 1-(1,4-ethano-8-phenyl-1,2,3,4-tetrahydro-1,5-naphthyridin-6-yl)-N^3-(3-fluoro-4-(4-((2S)-2-carboxypyrrolidin-1-yl)piperidin-1-yl)phenyl)-1H-1,2,4-triazole-3,5-diamine] |
| > 6.00 | COc1ccc(-c2cc(-n3nc(Nc4ccc(N5CCC(N6CCCC6)CC5)c(F)c4)nc3N)nc3c2N2CCC3CC2)cc1 [Compound 62, 1-(1,4-ethano-8-(4-methoxyphenyl)-1,2,3,4-tetrahydro-1,5-naphthyridin-6-yl)-N^3-(3-fluoro-4-(4-(pyrrolidin-1-yl)piperidin-1-yl)phenyl)-1H-1,2,4-triazole-3,5-diamine] |
| > 6.00 | Nc1nc(Nc2ccc(N3CCC(N4CCCC4)CC3)c(F)c2)nn1-c1cc(-c2cccnc2)c2c(n1)C1CCN2CC1 [Compound 63, 1-(1,4-ethano-8-pyridin-3-yl-1,2,3,4-tetrahydro-1,5-naphthyridin-6-yl)-N^3-(3-fluoro-4-(4-(pyrrolidin-1-yl)piperidin-1-yl)phenyl)-1H-1,2,4-triazole-3,5-diamine] |
| > 6.00 | Nc1nc(Nc2ccc(N3CCC(N4CCCC4)CC3)c(F)c2)nn1-c1cc(-c2ccsc2)c2c(n1)C1CCN2CC1 [Compound 64, 1-(1,4-ethano-8-thiophen-3-yl-1,2,3,4-tetrahydro-1,5-naphthyridin-6-yl)-N^3-(3-fluoro-4-(4-(pyrrolidin-1-yl)piperidin-1-yl)phenyl)-1H-1,2,4-triazole-3,5-diamine] |
| > 6.00 | COC(=O)[C@@H]1CN(c2ccc(Nc3nc(N)n(-c4cc(-c5ccccc5)c5c(n4)C4CCN5CC4)n3)cc2F)CCN1CC1CC1 [Compound 65, 1-(1,4-ethano-8-phenyl-1,2,3,4-tetrahydro-1,5-naphthyridin-6-yl)-N^3-(3-fluoro-4-((3S)-3-methyloxycarbonyl-4-cyclopropylmethylpiperazin-1-yl)phenyl)-1H-1,2,4-triazole-3,5-diamine] |
